The target in test [1] is DNA topoisomerase I (Homo sapiens). The test can be described thus: Supercoiled pHOT1 DNA (0.5 μg) was incubated with four units of human topoisomerase I in relaxation buffer (10mM Tris-HCl (pH 7.8), 1mM EDTA, 0.15M NaCl, 0.1% BSA, 0.1 spermidine, 5% glycerol), in the presence of varying concentrations of the test compounds. Reactions were carried out at 37 °Cfor 1 h and then terminated by the addition o.

The target in test [2] is T1, DNA topoisomerase 1 (Homo sapiens, UniProt P11387).
T1 sequence (P11387 whole entry): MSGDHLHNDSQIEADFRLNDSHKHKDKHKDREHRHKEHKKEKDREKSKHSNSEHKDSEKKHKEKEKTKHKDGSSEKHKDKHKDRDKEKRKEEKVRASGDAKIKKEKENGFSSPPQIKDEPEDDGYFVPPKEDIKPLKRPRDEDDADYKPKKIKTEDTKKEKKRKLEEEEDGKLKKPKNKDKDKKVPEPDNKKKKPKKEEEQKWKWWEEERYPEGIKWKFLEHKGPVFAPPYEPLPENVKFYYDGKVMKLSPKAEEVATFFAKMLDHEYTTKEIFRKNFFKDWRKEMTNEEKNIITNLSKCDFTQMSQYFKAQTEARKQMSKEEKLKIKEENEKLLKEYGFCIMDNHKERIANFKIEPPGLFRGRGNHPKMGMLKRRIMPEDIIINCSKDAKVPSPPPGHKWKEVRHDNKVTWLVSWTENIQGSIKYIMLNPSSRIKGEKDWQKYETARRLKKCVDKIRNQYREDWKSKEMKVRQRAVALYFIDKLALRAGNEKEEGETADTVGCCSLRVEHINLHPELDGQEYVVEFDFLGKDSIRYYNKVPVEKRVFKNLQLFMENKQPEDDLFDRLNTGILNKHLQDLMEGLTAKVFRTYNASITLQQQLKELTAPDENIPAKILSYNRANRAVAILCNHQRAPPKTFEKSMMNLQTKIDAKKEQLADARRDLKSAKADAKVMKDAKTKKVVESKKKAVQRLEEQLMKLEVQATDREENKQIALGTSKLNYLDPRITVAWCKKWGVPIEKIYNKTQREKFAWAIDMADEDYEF
The test can be described thus: Topoisomerase I Relaxation Assay. The conditions noted are these: pH 7.8; 37 °C. As for the experimental part: Supercoiled pHOT1 DNA (0.5 μg) was incubated with four units of human topoisomerase I in relaxation buffer (10mM Tris-HCl (pH 7.8), 1mM EDTA, 0.15M NaCl, 0.1% BSA, 0.1 spermidine, 5% glycerol), in the presence of varying concentrations of the test compounds. Reactions were carried out at 37 °Cfor 1 h and then terminated by the addition of sodium dodecyl sulfate (SDS) to 0.25% and proteinase K to 50 μg/ml. The reaction mixture was subjected to electrophoresis through a 0.8% agarose gel containing […] in TAE buffer ([…] and 1mM EDTA). The gels were stained with ethidium bromide and photographed under UV light. For the quantitative determination of topoisomerase concentration activity, photographic negatives were scanned and the area representing supercoiled DNA, migrating as a single band at the bottom of the gel was measured using UVI-KS4000i gel documentation and analysis system (SyngenBiotech, Sacramento, CA).

Nine compounds from BindingDB's records for doi:10.3109/14756366.2013.768987 (Medical University, 2014) can be followed below.

Where only a bound is given, the exact number is not on record here.

For orientation: IC50 means the concentration needed to halve the response being measured.

In the case of `O=C(NNC(=S)Nc1ccc(Br)cc1)C1CCNCC1` [DNA topoisomerase inhibitor, 6], the 50% inhibitory concentration (IC50) in test [1] and in test [2] was 250 µM each time.
Regarding `CCNC(=S)NNC(=O)C1CCNCC1` [DNA topoisomerase inhibitor, 8], the IC50 in test [1] and in test [2] was greater than 350 µM throughout.
For `COc1ccc(NC(=S)NNC(=O)C2CCNCC2)cc1` [DNA topoisomerase inhibitor, 4], the IC50 in test [1] and in test [2] was 250 µM in each case.
For the compound `O=C(NNC(=S)Nc1ccc(I)cc1)C1CCNCC1` [DNA topoisomerase inhibitor, 5], the IC50 in test [1] and in test [2] was 250 µM throughout.
Consider `CCc1ccc(NC(=S)NNC(=O)C2CCNCC2)cc1` [DNA topoisomerase inhibitor, 7], for which the half-inhibitory concentration (IC50) in test [1] and in test [2] was greater than 350 µM throughout.
For the compound `O=C(NC(=S)NNC(=O)c1cc2ccccc2[nH]1)c1ccccc1` [DNA topoisomerase inhibitor, 2], the IC50 turned out to be 50 µM in test [1] and 100 µM in test [2].
In the case of `COc1cc([C@@H]2c3cc4c(cc3[C@@H](O[C@@H]3O[C@@H]5CO[C@@H](C)O[C@H]5[C@H](O)[C@H]3O)[C@H]3COC(=O)[C@H]23)OCO4)cc(OC)c1O` [4'-Demethylepipodophyllotoxin 9-(4,6-O-(R)-ethylidene-beta-D-glucopyranoside)], the IC50 in test [2] is greater than 350 µM.
Regarding `O=C(NNC(=S)Nc1ccccc1)C1CCNCC1` [DNA topoisomerase inhibitor, 3], the concentration for half-maximal inhibition (IC50) in test [1] and in test [2] was 250 µM in each case.
Regarding `Cc1nc[nH]c1C(=O)NNC(=S)NC(=O)c1ccccc1` [DNA topoisomerase inhibitor, 1], the IC50 in test [1] came out at 50 µM; in test [2], 100 µM.
